Test results as given in EP4759812A1 (Guangzhou Lupeng Pharmaceutical Co., Ltd., priority 2023, dated 2025).
Entries after “also recorded” stand apart in the source; their conditions may differ.

Experiments:
Assay type in all cases: physicochemical
[1] = Dynamic vapor sorption (DVS) experiment; conditions: for Hygroscopicity: class per Chinese Pharmacopoeia 2010 guidance (25±0.2°C, 80% relative humidity)
[2] = Stability test in pure water and buffer solution (suspension, XRPD); conditions: 25°C, stirred 24 h, solid by XRPD
Method: The suspensions were stirred at 25°C for 24 h, and filtered to obtain the solids. Samples were taken for XRPD measurement. […]

[3] = Influencing factor stability: high-humidity test; conditions: Temperature 25°C, relative humidity 92.5±5%; for Purity: HPLC, starting purity: Crystal form VI 99.32%, Amorphous form 98.80%, Crystal form XIII 99.01%; for Crystal form: XRPD
Method: (§1) The crystal form results under different conditions were identified by XRPD analysis, and the purity results under different conditions were identified by HPLC analysis.
(§2) The above samples were then taken on days 5, 10, 15, and 30, respectively. Their crystal forms were tested by adopting X-ray powder diffraction (XRPD), and the sample purities were tested by adopting HPLC. […]

[4] = Influencing factor stability: high-temperature test; conditions: Temperature 60°C; for Purity: HPLC, starting purity: Crystal form VI 99.32%, Amorphous form 98.80%, Crystal form XIII 99.01%; for Crystal form: XRPD
Method: as §1, §2

[5] = Influencing factor stability: light exposure test; conditions: Visible light 4500 Lux ± 500 Lux; for Crystal form: ultraviolet light 1.7 W*h/m^2 (25°C, RH 60%±5%), XRPD; for Purity: HPLC, starting purity: Crystal form VI 99.32%, Amorphous form 98.80%, Crystal form XIII 99.01%
Method: as §1, §2

[6] = Accelerated stability test; conditions: 40±2°C, 75±5 RH %; for Crystal form: XRPD
Long-term stability test = conditions: 25±2°C, 60±5 RH %; for Crystal form: XRPD
[7] = Morphological comparison under polarizing light microscope

Q: For `C=CC(=O)Nc1cc(Nc2nc(-c3ccnc(N4CCn5c(cc6c5CC(C)(C)C6)C4=O)c3CO)cn(C)c2=O)ccc1N1CCN(C2CCOCC2)C[C@@H]1C` [Crystal form VI, (S)-N-(5-((6-(2-(7,7-dimethyl-1-oxo-1,3,4,6,7,8-hexahydro-2H-cyclopenta[4,5]pyrrolo[1,2-a]pyrazin-2-yl)-3-(hydroxymethyl)pyridin-4-yl)-4-methyl-3-oxo-3,4-dihydropyrazin-2-yl)amino)-2-(2-methyl-4-(tetrahydro-2H-pyran-4-yl)piperazin-1-yl)phenyl)acrylamide], which “Adsorption weight gain (80% RH)” value ([1]; DVS, 80% RH) is on record?
A: 0.79%

Q: What about the “Adsorption weight gain (95% RH)” value ([1]; DVS, 95% RH) of the same compound?
A: 1.34%

Q: What about the Hygroscopicity [1] of the same compound?
A: Slightly hygroscopic (hygroscopic weight gain is less than 2% but not less than 0.2%)

Q: What about the Hygroscopicity ([1]; listed as crystal form VI) of the same compound?
A: slightly hygroscopic; also recorded: slight hygroscopicity

Q: And the Suspension result ([2]; Pure water)?
A: Crystal form VI

Q: And the Suspension result ([2]; pH 4.5 buffer solution)?
A: Crystal form VI

Q: What about the Suspension result ([2]; pH 6.8 buffer solution) of the same compound?
A: Crystal form VI

Q: What about the Purity ([3]; 5 days) of the same compound?
A: 99.35%

Q: And the Crystal form ([3]; 5 days)?
A: Crystal form VI

Q: What about the Purity ([3]; 10 days) of the same compound?
A: 99.35%

Q: And the Crystal form ([3]; 10 days)?
A: Crystal form VI

Q: What about the Purity ([3]; 15 days) of the same compound?
A: 99.32%

Q: And the Crystal form ([3]; 15 days)?
A: Crystal form VI

Q: And the Purity ([3]; 30 days)?
A: 99.31%

Q: And the Crystal form ([3]; 30 days)?
A: Crystal form VI

Q: What about the Purity ([4]; 5 days) of the same compound?
A: 99.31%

Q: What about the Crystal form ([4]; 5 days) of the same compound?
A: Crystal form VI

Q: And the Purity ([4]; 10 days)?
A: 99.25%

Q: What about the Crystal form ([4]; 10 days) of the same compound?
A: Crystal form VI

Q: What about the Purity ([4]; 15 days) of the same compound?
A: 98.96%

Q: And the Crystal form ([4]; 15 days)?
A: Crystal form VI

Q: What about the Purity ([4]; 30 days) of the same compound?
A: 98.72%

Q: What about the Crystal form ([4]; 30 days) of the same compound?
A: Crystal form VI

Q: And the Crystal form ([4]; 30 days, listed as crystal form VI)?
A: no change in crystal form

Q: What about the Crystal form ([5]; 5 days) of the same compound?
A: Crystal form VI

Q: What about the Crystal form ([5]; 10 days) of the same compound?
A: Crystal form VI

Q: What about the Crystal form ([5]; 15 days) of the same compound?
A: Crystal form VI

Q: And the Crystal form ([5]; 30 days)?
A: Crystal form VI

Q: And the Purity ([5]; ultraviolet light 1.7 W*h/m^2, 5 days)?
A: 99.17%

Q: And the Purity ([5]; ultraviolet light 1.7 W*h/m^2, 10 days)?
A: 99.23%

Q: And the Purity ([5]; ultraviolet light 1.7 W*h/m^2, 15 days)?
A: 98.71%

Q: And the Purity ([5]; ultraviolet light 1.7 W*h/m^2, 30 days)?
A: 98.14%

Q: And the Purity ([6]; 0 days)?
A: 99.32%

Q: What about the Crystal form ([6]; 0 days) of the same compound?
A: Crystal form VI

Q: What about the Purity ([6]; 1 month) of the same compound?
A: 99.18%

Q: And the Crystal form ([6]; 1 month)?
A: Crystal form VI

Q: What about the Purity ([6]; 3 months) of the same compound?
A: 98.98%

Q: And the Crystal form ([6]; 3 months)?
A: Crystal form VI

Q: What about the Purity ([6]; 6 months) of the same compound?
A: 98.54%

Q: And the Crystal form ([6]; 6 months)?
A: Crystal form VI

Q: And the Crystal form ([6]; 6 months, listed as crystal form VI)?
A: no change in crystal form

Q: And the Purity (Long-term stability test; 0 days)?
A: 99.32%

Q: What about the Crystal form (Long-term stability test; 0 days) of the same compound?
A: Crystal form VI

Q: And the Purity (Long-term stability test; 1 month)?
A: 99.31%

Q: What about the Crystal form (Long-term stability test; 1 month) of the same compound?
A: Crystal form VI

Q: What about the Purity (Long-term stability test; 6 months) of the same compound?
A: 99.35%

Q: What about the Crystal form (Long-term stability test; 6 months) of the same compound?
A: Crystal form VI

Q: What about the Purity (Long-term stability test; 12 months) of the same compound?
A: 99.28%

Q: And the Crystal form (Long-term stability test; 12 months)?
A: Crystal form VI

Q: What about the Purity (Long-term stability test; 18 months) of the same compound?
A: 99.31%

Q: And the Crystal form (Long-term stability test; 18 months)?
A: Crystal form VI

Q: What about the Purity (Long-term stability test; 24 months) of the same compound?
A: 99.30%

Q: And the Crystal form (Long-term stability test; 24 months)?
A: Crystal form VI

Q: What about the Crystal form (Long-term stability test; 24 months, listed as crystal form VI) of the same compound?
A: no change in crystal form

Q: What about the “dispersibility and flowability / agglomeration and caking” value ([7]; judged from polarizing light microscope images) of the same compound?
A: relatively good dispersibility and flowability

Q: And the crystal morphology ([7]; polarizing light microscope)?
A: long rod-shaped
